From ChEMBL document CHEMBL5584299, “Undobolins A-L, Ophiobolin-Type Sesterterpenoids from Aspergillus undulatus” (J Nat Prod, 2024) come the findings set out here.

The subject of experiment [1] is Splenocyte. The experiment in a line: Immunosuppressive activity in BALB/c mouse splenocytes assessed as inhibition of ConA-induced T cell proliferation incubated for 48 hrs by CCK-8 assay. Format: functional, cell-based. In general terms: Tetrazolium dyes change colour on reduction, which living cells bring about.
Experiment [2] relates to Splenocyte. The experiment in a line: Immunosuppressive activity in BALB/c mouse splenocytes assessed as inhibition of LPS-induced B cell proliferation incubated for 48 hrs by CCK-8 assay. In kind it is functional, cell-based.
The subject of the next experiment is RAW264.7. The experiment can be described thus: Antiinflammatory activity against mouse RAW264.7 cells assessed as reduction of LPS-induced NO production preincubated for 2 hrs followed by LPS-stimulation and measured after 12 hrs by Griess reagent assay. In kind it is functional, cell-based. For orientation: The Griess reaction detects nitrite, a stable product of nitric oxide.

For a further experiment, the system named is Candida albicans. The experiment in a line: Antifungal activity against Candida albicans ATCC10231 assessed as reduction in microbial growth incubated for 16 hrs by broth microdilution method. In kind it is functional. On the technique in general: In broth dilution the organism is exposed to a series of concentrations in liquid medium.
The target in experiment [3] is T1, 3-hydroxy-3-methylglutaryl-coenzyme A reductase (Homo sapiens, UniProt P04035).
T1 sequence (P04035 whole entry): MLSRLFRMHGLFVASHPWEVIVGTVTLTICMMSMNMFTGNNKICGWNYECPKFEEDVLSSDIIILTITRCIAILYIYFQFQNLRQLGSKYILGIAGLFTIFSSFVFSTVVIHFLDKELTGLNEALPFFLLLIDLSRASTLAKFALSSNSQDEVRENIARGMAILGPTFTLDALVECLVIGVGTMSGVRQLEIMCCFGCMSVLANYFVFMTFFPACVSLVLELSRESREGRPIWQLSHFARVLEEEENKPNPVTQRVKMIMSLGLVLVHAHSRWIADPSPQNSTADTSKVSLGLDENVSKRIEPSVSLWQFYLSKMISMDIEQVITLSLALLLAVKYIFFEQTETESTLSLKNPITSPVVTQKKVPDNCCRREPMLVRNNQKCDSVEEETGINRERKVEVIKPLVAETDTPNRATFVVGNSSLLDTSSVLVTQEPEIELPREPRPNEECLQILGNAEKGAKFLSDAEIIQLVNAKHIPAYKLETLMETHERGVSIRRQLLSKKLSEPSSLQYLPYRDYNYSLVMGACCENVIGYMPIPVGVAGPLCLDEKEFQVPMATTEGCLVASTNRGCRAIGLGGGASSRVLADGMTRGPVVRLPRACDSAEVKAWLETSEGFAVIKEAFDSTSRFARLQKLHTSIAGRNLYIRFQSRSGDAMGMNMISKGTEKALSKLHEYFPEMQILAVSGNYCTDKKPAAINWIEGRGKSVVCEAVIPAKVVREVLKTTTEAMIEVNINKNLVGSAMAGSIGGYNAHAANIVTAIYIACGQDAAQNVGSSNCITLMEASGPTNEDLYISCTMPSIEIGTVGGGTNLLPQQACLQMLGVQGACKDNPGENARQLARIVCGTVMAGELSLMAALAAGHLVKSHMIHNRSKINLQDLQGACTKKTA
The experiment can be described thus: Inhibition of human HMGR.

Some results are limits rather than exact numbers.

What is called IC50 is the concentration needed to halve the response being measured. Broadly, the MIC is the lowest concentration that inhibits growth of the organism.

As to `C=C1[C@H]2CC[C@@](C)(O)[C@H]2C[C@@]2(C)CC[C@H]([C@@H](C)CC/C=C(\C)CO)[C@@H]2C[C@@H]1O`, the figures for the concentration for half-maximal inhibition (IC50) with Splenocyte [1], in the experiment on Splenocyte [2] and in the experiment on RAW264.7 were more than 40 µM, 19.4 µM and more than 40 µM, respectively.
Take `C/C1=C/C[C@H]2[C@@H]([C@@H](C)CC/C=C(\C)CO)CC[C@]2(C)C[C@@]2(O)[C@H](C)CC[C@H]12`: the values for the concentration for half-maximal inhibition (IC50) with Splenocyte [1], in the experiment with Splenocyte [2] and in the experiment with RAW264.7 were 2.29 µM, more than 40 µM and more than 40 µM, respectively.
For the compound `C=C1[C@H]2[C@@H](O)C[C@@](C)(O)[C@H]2C[C@@]2(C)CC[C@H]([C@@H](C)CC/C=C(\C)C(=O)O)[C@@H]2C[C@@H]1O`, the concentration for half-maximal inhibition (IC50) in the experiment on Splenocyte [1], in the experiment on Splenocyte [2] and in the experiment with RAW264.7 was more than 40 µM in each case.
As to `CC(C)=C/C=C\[C@H](C)[C@H]1CC[C@]2(C)C[C@@H]3C(C)=CC(=O)[C@H]3[C@H](CO)CC[C@@H]12`, the IC50 with Splenocyte [1] was more than 40 µM; in the experiment with Splenocyte [2], more than 40 µM; in the experiment with RAW264.7 it was 8.31 µM.
As for `CC(C)=C/C=C\[C@H](C)[C@H]1CC[C@]2(C)C[C@@]3(O)[C@H](C)C[C@@H](O)[C@@H]3/C(CO)=C\C[C@@H]12`, the half-maximal inhibitory concentration (IC50) in the experiment with Splenocyte [1] is 35.8 µM; in the experiment on Splenocyte [2] it was more than 40 µM; with RAW264.7 it was more than 40 µM.
With `CC(C)=C/C=C\[C@H](C)[C@H]1CC[C@]2(C)C[C@@]3(O)[C@H](C)CC[C@@H]3/C(CO)=C\C[C@@H]12`, the IC50 in the experiment on Splenocyte [1] is 15.6 µM; with Splenocyte [2], more than 40 µM; in the experiment on RAW264.7 it was more than 40 µM.
Take `CC(C)=C/C=C\[C@H](C)[C@H]1CC[C@]2(C)C[C@@H]3C(=O)C=C4C3=C(CC[C@@H]12)C(=O)N4CCO`: the half-inhibitory concentration (IC50) with Splenocyte [1] is more than 40 µM; in the experiment on Splenocyte [2], 25.4 µM; with RAW264.7, more than 40 µM.
For `C=C1[C@H]2[C@H](O)C[C@@](C)(O)[C@H]2C[C@@]2(C)CC[C@H]([C@@H](C)CC/C=C(\C)C(=O)O)[C@@H]2C[C@@H]1O`, the IC50 in the experiment on Splenocyte [1] was 10.8 µM; in the experiment on Splenocyte [2], more than 40 µM; in the experiment on RAW264.7 it was more than 40 µM.
As for `CC1=CC(=O)[C@H]2/C(CO)=C\C[C@H]3[C@@H]([C@@H](C)/C=C\[C@@H]4OC4(C)C)CC[C@]3(C)C[C@H]12`, the IC50 in the experiment with Splenocyte [1], in the experiment with Splenocyte [2] and in the experiment on RAW264.7 was more than 40 µM in each case.
Turning to `CC(C)=C[C@H]1C[C@H](C)[C@]2(CC[C@]3(C)C[C@@H]4C(=O)C=C5C4=C(CC[C@H]32)C(=O)N5CCO)O1`, in the experiment with Candida albicans, the minimal inhibitory concentration (MIC) came out at 4 µg/mL. This compound also returned a concentration for half-maximal inhibition (IC50) in experiment [3] of 2500 nM.
As for `CC(C)=CCC[C@H](C)[C@H]1CC[C@]2(C)C[C@@]3(O)[C@H](C)CC[C@@H]3/C(CO)=C\C[C@@H]12`, the IC50 with Splenocyte [1], in the experiment on Splenocyte [2] and in the experiment on RAW264.7 was more than 40 µM each time.
Turning to `CC(C)=C/C=C/[C@H](C)[C@H]1CC[C@]2(C)C[C@@]3(O)[C@H](C)C[C@@H](O)[C@@H]3/C(CO)=C\C[C@@H]12`, the IC50 in the experiment with Splenocyte [1], in the experiment on Splenocyte [2] and in the experiment on RAW264.7 was more than 40 µM throughout.
`CC1=CC(=O)/C2=C(\CO)CC[C@H]3[C@@H]([C@@H](C)CC/C=C(\C)C(=O)O)CC[C@]3(C)C[C@H]12`: the IC50 in the experiment with Splenocyte [1], in the experiment with Splenocyte [2] and with RAW264.7 was more than 40 µM in each case.
Regarding `C[C@@H]1C[C@H]2[C@@H]3CCC4=CC(=O)C=C[C@]4(C)[C@@]3(F)[C@@H](O)C[C@]2(C)[C@@]1(O)C(=O)CO` [DEXAMETHASONE], the figures for the half-inhibitory concentration (IC50) in the experiment with Splenocyte [1] and in the experiment with Splenocyte [2] were 0.04 µM and 0.47 µM, respectively.
